Patent US20190022220A1, “LIGHT-ACTIVATED ANCHORING OF THERAPEUTIC FACTORS TO TISSUES” (The Board of Trustees of the Leland Stanford Junior …, priority 2016, published 2019)
Entries after “also recorded” stand apart in the source; their conditions may differ.

How the values were obtained:
[1] = system: 2 mm corneal debridement wound; assay: Rodent corneal debridement wound healing and ocular tolerance study; type: in vivo
Experimental: FIGS. 13A-13D show results of EGF surface-coupling by V-CXL in a rodent corneal debridement animal model. A 2 mm corneal debridement was performed in three groups of two rodent eyes each (average corneal diameter=3 mm). Shown here are photographs of fluorescein-stained rodent eyes at 24 hours: EGF encapsulated within a collagen gel using riboflavin and blue light exposure for 5 seconds (FIG. 13A), EGF coupling directly to corneal stroma using riboflavin and blue light exposure for 5 seconds (FIG. 13B), topical EGF only (FIG. 13C), and no treatment (FIG. 13D). Slit lamp photos of the wounded and treated eyes are shown on the left, and fluorescein staining of the same eyes are shown on the right.
Mouse corneas were subject to 2 mm diameter circular corneal debridement and then treated with (1) a collagen gel solution containing 0.01 mg/ml of EGF, and 0.1 mg/ml riboflavin and exposed to blue light (˜458 nm) for 5 seconds, (2) an aqueous EGF solution containing 0.01 mg/ml EGF and 0.1 mg/ml riboflavin and exposed to blue light for 5 seconds, (3) topical application of an aqueous solution of EGF alone at a concentration of 0.01 mg/mL, or (4) no treatment. The rodents were then examined at 24 hours and the wound areas examined by fluorescein staining.
In vivo ocular tolerance and wound healing animal study: In an animal study in rodents, V-CXL was used to bind EGF to wounded corneas. Briefly, a 2 mm diameter debridement was performed, and the wound bed was treated topically with 0.025 mM of riboflavin mixed with 0.01 mg/mL of EGF delivered topically to the wound bed and allowed incubate for 10 minutes followed by 5 seconds of exposure to blue light (˜458 nm) at 60 mW/cm^2. The eye was then rinsed with BSS. Controls used were topical EGF alone and no treatment.

[2] = EGF release from V-CXL collagen gels (ELISA); type: physicochemical; conditions: 37° C., 2 to 120 hours
Experimental: FIG. 9C summarizes the storage and loss modulus of collagen gels crosslinked using riboflavin and blue light exposure of different time intervals.
Growth factor release. To understand the ability of growth factors to be liberated from crosslinked collagen, human recombinant EGF (Peprotech) was incorporated within collagen gels during gelation. A neutralized 3% collagen solution with 0.25 mM riboflavin was exposed to blue light (˜458 nm) at 60 mW/cm^2 for 20 seconds. The formed gel was then cut into cylindrical discs and placed in a PBS solution with or without 0.1% versus 0.2% collagenase at 37° C. on a shaker. The solution was then sampled at intervals starting at 2 hours to 120 hours. An ELISA kit was then used to evaluate the concentration of released EGF in the solution.

[3] = system: primary rabbit corneal epithelial cells (CECs); assay: Proliferation of corneal epithelial cells on EGF-bound collagen surfaces; type: cell-based; conditions: over 5 days; EGF bound to collagen by V-CXL vs collagen without covalently linked EGF; both concentrations tested
Experimental: Enhanced cell proliferation on growth factor fortified collagen gels. Late-passage primary rabbit corneal epithelial cells (CECs) of the same cell density were grown on surfaces with EGF bound to collagen using V-CXL as well as standard collagen-coated tissue-culture polystyrene without covalently linked EGF.

NGF receptor = assay: Ellipsometry of soluble NGF receptor binding to NGF-coupled collagen surfaces; conditions: NGF photochemically coupled to collagen compared to physisorbed NGF
From the text: V-CXL binds growth factors directly to collagen. V-CXL was used to bind EGF and NGF growth factors directly to collagen. Fluorometry (FIG. 3), surface plasmon resonance (FIG. 4), ellipsometry (FIG. 5), and ELISA (FIG. 6) were used to monitor and compare the chemical coupling versus physical adsorption of NGF and EGF to collagen surfaces. In these experiments, collagen was first chemically immobilized to either gold, glass, or polystyrene surfaces (depending on the method being used), followed by V-CXL-mediated coupling of either EGF or NGF (or their fluorescein-isothiocyanate (FITC)-labeled conjugates) to the collagen coating alone or physical adsorption of growth factor to collagen from aqueous solution.
Exposure of NGF to blue light in the presence of riboflavin led to a step-increase in the layer thickness of the collagen-coated gold wafer.

[4] = system: human mesenchymal stem cells (hMSCs); assay: Live-dead assay of hMSCs encapsulated in collagen gels formed with riboflavin and blue light; type: cell-based; conditions: 72 hours; riboflavin 0.25 mM or less; 20 sec blue light at 100 mW/cm^2; cells in collagen gel
From the text: A major clinical challenge is the delivery of cells, particularly stem cells, to an diseased or damaged area of the body. Currently, the stem cells are typically injected in suspension to an area without a specific or effective means to have them target and adhere to a particular location. Providing a immobilizing matrix and microenvironment in which to settle and grow while remaining immobilized to that are would be an advancement in the art. Cells can be encapsulated within a biomolecular gel according to the present invention. […] Using this method, hMSCs and other cell types can be encapsulated and positioned to a specific location in the body. For instance, a collagen gel encapsulating hMSCs can be formed and adhered in situ using blue light and riboflavin on the surface of a corneal wound, creating a “living reservoir” of therapeutic factors that are secreted by the immobilized hMSCs. The formed gel adheres to the target tissue due to crosslinks formed between the exogenously applied collagen and the collagen on the wound bed or target tissue which is shown by example in FIG. 9D.

epidermal growth factor [EGF]
wound area by fluorescein staining vs topical EGF alone or no treatment ([1]; 24 hours, 0.01 mg/ml EGF, 0.1 mg/ml riboflavin, blue light (~458 nm) 5 seconds): smaller; also recorded: greater wound area reduction | reduction in wound area by fluorescein staining compared with controls ([1]; 24 hours, EGF-coupled corneas (0.025 mM riboflavin, 0.01 mg/mL EGF, 5 s blue light) vs topical EGF alone and no treatment, n=2): greater reduction in wound area | wound area as % of the wound area in topical EGF-treated eyes ([1]; 24 hours, V-CXL: 0.025 mM riboflavin + 0.01 mg/mL EGF, 5 seconds blue light (~458 nm) at 60 mW/cm^2, n=2, ImageJ analysis): approximately 50% | wound area as % of the wound area of untreated eyes ([1]; 24 hours, V-CXL: 0.025 mM riboflavin + 0.01 mg/mL EGF, 5 seconds blue light at 60 mW/cm^2, n=2, ImageJ analysis): approximately 35% | signs of ocular intolerance (conjunctival injection, swelling, discharge, corneal toxicity) ([1]; eyes treated with EGF and riboflavin in the V-CXL reaction): No signs of ocular intolerance | EGF release from collagen gel ([2]; 0.1% versus 0.2% collagenase in PBS): increases the release in a dose-dependent manner; also recorded: accelerated in a dose-dependent manner | EGF release from collagen gel ([2]; PBS alone, 3% collagen, 0.25 mM riboflavin, blue light 60 mW/cm^2 20 seconds): relatively slow release and slow | proliferation of senescent primary CECs [3]: greater proliferation

nerve growth factor [NGF]
NGF receptor binding (change in relative layer thickness) (NGF receptor): higher amount of NGF receptor binding; also recorded: greater NGF binding

Cc1cc2nc3c(=O)[nH]c(=O)nc-3n(C[C@H](O)[C@H](O)[C@H](O)CO)c2cc1C [riboflavin]
% living hMSCs (viability) [4]: greater than 90%
